Data as given in US10774071B2, “PD-1/PD-L1 inhibitors” (Gilead Sciences, Inc., priority 2018, dated 2020).
Like-named read-outs stand apart in the source and are kept apart here.

Tests used:
PD-1/PD-L1 = PD-1/PD-L1 (Homo sapiens (Human), UniProt Q9NZQ7); assay: PD-1/PD-L1 biochemical protein-protein interaction assay (ALPHA); type: binding; details: read-out: IC50 PD-L1-PD1
PD-L1 = PD-L1 (Homo sapiens (Human), UniProt Q9NZQ7); assay: PD-L1/PD-L1 dimerization biochemical protein-protein interaction assay (ALPHA); type: binding; details: read-out: AC50 PDL1 Dimer 1 nM
[1] = 0.3 nM His tagged PD-L1, 2.5 nM biotinylated Fc-PD-1, Table 3B
[2] = 0.5 nM His tagged PD-L1 and 0.5 nM FLAG tagged PD-L1, Table 4B
[3] = 0.3 nM His tagged PD-L1, 2.5 nM biotinylated Fc-PD-1, readings of 0.064 nM are equal to or less than 0.064 nM
[4] = 0.5 nM His tagged PD-L1 and 0.5 nM FLAG tagged PD-L1, Table 4A

Chain of PD-1/PD-L1 (Q9NZQ7 19-238): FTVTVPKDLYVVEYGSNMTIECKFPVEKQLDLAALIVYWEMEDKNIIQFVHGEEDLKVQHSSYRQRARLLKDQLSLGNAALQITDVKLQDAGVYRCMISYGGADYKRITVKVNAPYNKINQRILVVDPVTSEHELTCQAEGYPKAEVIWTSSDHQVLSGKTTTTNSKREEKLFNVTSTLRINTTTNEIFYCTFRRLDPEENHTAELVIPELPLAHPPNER
Chain of PD-L1 (Q9NZQ7 19-238): as above
Chain of PD-L1 (Q9NZQ7 19-238): as above

SMILES | IC50 (PD-1/PD-L1; [1]) | AC50 (PD-L1; [2]) | IC50 (PD-1/PD-L1; [3]) | AC50 (PD-L1; [4])
COc1nc(-c2cccc(-c3cccc4c3CC[C@@H]4Oc3nc(OC)c(CN4C[C@H](C(=O)O)[C@@H](C)C4)cc3Cl)c2Cl)ccc1CNC[C@@H]1CCC(=O)N1 [B-106] | 0.064 nM | 41.3 nM |  | 
COc1nc(-c2cccc(-c3cccc4c3CC[C@@H]4Oc3nc4c(nc3Cl)c(CNC[C@@H]3CCC(=O)N3)nn4C)c2Cl)ccc1CNC[C@@H]1CCC(=O)N1 [B-147] | 0.351 nM | 178 nM |  | 
COc1cc(O[C@H]2CCc3c(-c4cccc(-c5ccc(CNC[C@@H]6CCC(=O)N6)c(OC)n5)c4Cl)cccc32)c(Cl)cc1CN1CC[C@H](C(=O)O)C1 [B-167] | 0.064 nM | 51.6 nM |  | 
COc1cc(O[C@H]2CCc3c(-c4cccc(-c5ccc(CNC[C@@H]6CCC(=O)N6)c(OC)n5)c4Cl)cccc32)c(Cl)cc1CN1CC2(C(=O)O)CCC1CC2 [B-166] | 0.064 nM | 43.7 nM |  | 
COc1nc(-c2cccc(-c3cccc4c3CC[C@@H]4Oc3nc(OC)c(CN4CC5CCCC4(C(=O)O)C5)cc3Cl)c2Cl)ccc1CNC[C@@H]1CCC(=O)N1 (stereo partly drawn) [B-181] | 0.064 nM | 18.9 nM |  | 
COc1nc(O[C@H]2CCc3c(-c4cccc(-c5cc(F)c(CNC[C@@H]6CCC(=O)N6)c(OC)n5)c4Cl)cccc32)c(C(F)(F)F)cc1CN1CC[C@@H](C(=O)O)C1 [B-191] | 0.064 nM | 12.3 nM |  | 
COc1nc(-c2cccc(-c3cccc4c3CC[C@@H]4Oc3nc(OCc4ccc(-n5cccn5)nc4)c(CN4CC5(C(=O)O)CCC4CC5)cc3Cl)c2Cl)ccc1CNC[C@@H]1CCC(=O)N1 [B-56] | 0.189 nM | 41 nM |  | 
COc1nc(-c2cccc(-c3cccc4c3CC[C@@H]4Nc3nc(OC)c(CN[C@@H](C)C(N)=O)cc3C(F)(F)F)c2Cl)ccc1CNC[C@@H]1CCC(=O)N1 [A-98] |  |  | ≤ 0.064 nM | 40.3 nM
COc1nc(-c2cccc(-c3cccc4c3CC[C@@H]4Oc3nc(OC)c(CN4CCCCC(C(=O)O)C4)cc3Cl)c2Cl)ccc1CNC[C@@H]1CCC(=O)N1 (stereo partly drawn) [B-176] | 0.064 nM | 52.6 nM |  | 
COc1nc(-c2cccc(-c3cccc4c3CC[C@@H]4Nc3nc(OC)c(CN4CC[C@@](C)(C(=O)O)C4)nc3C(F)(F)F)c2Cl)ccc1CNC[C@@H]1CCC(=O)N1 [A-20] |  |  | ≤ 0.064 nM | 29.1 nM
COc1nc(-c2cccc(-c3cccc4c3CC[C@@H]4Oc3nc(OC)c(CN4CC[C@@H](C(=O)N=S(C)(=O)NC(C)=O)C4)cc3Cl)c2Cl)ccc1CNC[C@@H]1CCC(=O)N1 (stereo partly drawn) [B-163] | 0.064 nM | 39.1 nM |  | 
COc1nc(-c2cccc(-c3cccc4c3CC[C@@H]4Oc3nc(OC)c(CN4C[C@H]5[C@@H]([C@H]4C(=O)O)C5(C)C)cc3Cl)c2Cl)ccc1CNC[C@@H]1CCC(=O)N1 [B-182] | 0.064 nM | 31.1 nM |  | 
COc1nc(-c2cccc(-c3cccc4c3CC[C@@H]4Oc3nc(OC)c(CN4CC[C@@H](C(=O)O)C4)cc3Cl)c2C)ccc1CNC[C@@H]1CCC(=O)N1 [B-78] | 0.064 nM | 57.9 nM |  | 
COc1nc(-c2cccc(-c3cccc4c3CC[C@@H]4Nc3nc(OC)c(CN4CCC5CC4(C(=O)O)C5)cc3C(F)(F)F)c2Cl)ccc1CN[C@H]1C[C@](C)(O)C1 [A-58] |  |  | ≤ 0.064 nM | 9.38 nM
COc1cc(N[C@H]2CCc3c(-c4cccc(-c5ccc(CNC[C@@H]6CCC(=O)N6)c(OC)n5)c4Cl)cccc32)c(C(F)(F)F)nc1CN1CC[C@@](C)(C(=O)O)C1 [A-42] |  |  | ≤ 0.064 nM | 12.6 nM
COc1nc(-c2cccc(-c3cccc4c3CC[C@@H]4Oc3nc(OC)c(CN[C@H](C(=O)O)C(C)C)cc3C(F)(F)F)c2Cl)ccc1CNC[C@@H]1CCC(=O)N1 [B-270] | 0.064 nM | 4.76 nM |  | 
COc1cc(O[C@H]2CCc3c(-c4cccc(-c5ccc(CNC[C@@H]6CCC(=O)N6)c(OC)n5)c4Cl)cccc32)c(C(F)(F)F)cc1CN1CC[C@@](C)(C(=O)O)C1 [B-218] | 0.064 nM | 17.3 nM |  | 
COc1nc(O[C@H]2CCc3c(-c4cccc(-c5cnc(CNC[C@@H]6CCC(=O)N6)c(OC)n5)c4Cl)cccc32)c(Cl)cc1CNC1CC(NC(C)=O)C1 (stereo partly drawn) [B-34] | 0.111 nM | 22.3 nM |  | 
COc1nc(-c2cccc(-c3cccc4c3CC[C@@H]4Nc3nc(OC)c(CN(C)CC(=O)O)cc3C(F)(F)F)c2Cl)ccc1CNC[C@@H]1CCC(=O)N1 [A-35] |  |  | ≤ 0.064 nM | 13.2 nM
COc1nc(-c2cccc(-c3cccc4c3CC[C@@H]4Oc3nc(OC)c(CN[C@H](C(=O)O)C4CC4)cc3C(F)(F)F)c2Cl)ccc1CN[C@H]1C[C@](C)(O)C1 [B-255] | 0.064 nM | 7.89 nM |  | 

SMILES | IC50 (PD-1/PD-L1; [1]) | AC50 (PD-L1; [2]) | IC50 (PD-1/PD-L1; [3]) | AC50 (PD-L1; [4])
COc1nc(-c2cccc(-c3cccc4c3CC[C@@H]4Oc3nc(OC)c(CN4CC(C(=O)O)C5(CC5)C4)cc3Cl)c2Cl)ccc1CNC[C@@H]1CCC(=O)N1 (stereo partly drawn) [B-72] | 0.064 nM | 25.8 nM |  | 
COc1nc(-c2cccc(-c3cccc4c3CC[C@@H]4Nc3nc(OC)c(CN4CC[C@@H](C(=O)O)C4)cc3C(F)(F)F)c2Cl)ccc1CN1CC2(CCC(=O)N2)C1 [A-24] |  |  | ≤ 0.064 nM | 38.8 nM
COc1cc(-c2cccc(-c3cccc4c3CC[C@@H]4Nc3nc(OC)c(CN4CC[C@@H](C(=O)O)C4)cc3C(F)(F)F)c2Cl)ccc1CNC[C@@H]1CCC(=O)N1 [A-36] |  |  | ≤ 0.064 nM | 2.05 nM
COc1nc(-c2cccc(-c3cccc4c3CC[C@@H]4Nc3nc(OC)c(CN4CCCC[C@]4(C)C(=O)O)cc3C(F)(F)F)c2Cl)ccc1CN1CC(C)(O)C1 [A-51] |  |  | ≤ 0.064 nM | 106 nM
COc1nc(-c2cccc(-c3cccc4c3CC[C@@H]4Nc3nc(OC)c(CN[C@@H](C)C(=O)O)nc3C(F)(F)F)c2Cl)ccc1CN1CC(O)C1 [A-72] |  |  | ≤ 0.064 nM | 13.4 nM
COc1nc(-c2cccc(-c3cccc4c3CC[C@@H]4Oc3nc(OC)c(CN4CCC(C)(C)[C@H]4C(=O)O)cc3Cl)c2Cl)ccc1CNC[C@@H]1CCC(=O)N1 [B-183] | 0.064 nM | 25.1 nM |  | 
CCC1C(C(=O)O)CCN1Cc1cc(C(F)(F)F)c(N[C@H]2CCc3c(-c4cccc(-c5ccc(CNC[C@@H]6CCC(=O)N6)c(OC)n5)c4Cl)cccc32)nc1OC (stereo partly drawn) [A-79] |  |  | ≤ 0.064 nM | 21.4 nM
COc1cc(-c2cccc(-c3cccc4c3CC[C@@H]4Oc3nc(OC)c(CN4CC[C@@H](C(=O)O)C4)cc3Cl)c2Cl)cc(F)c1CNC[C@@H]1CCC(=O)N1 [B-131] | 0.064 nM | 10.5 nM |  | 
CC[C@H](NCc1nc(C(F)(F)F)c(N[C@H]2CCc3c(-c4cccc(-c5ccc(CNC[C@@H]6CCC(=O)N6)c(OC)n5)c4Cl)cccc32)nc1OC)C(=O)O [A-104] |  |  | ≤ 0.064 nM | 16.6 nM
COc1nc(-c2cccc(-c3cccc4c3CC[C@@H]4Oc3nc(OC)c(CN[C@@H](C)C(N)=O)cc3C(F)(F)F)c2Cl)ccc1CNC[C@@H]1CCC(=O)N1 [B-265] | 0.079 nM | 14.2 nM |  | 
COc1nc(-c2cccc(-c3cccc4c3CC[C@@H]4Oc3nc(OC)c(CNC4(C(=O)O)CC4)cc3C(F)(F)F)c2Cl)ccc1CNC[C@H]1C[C@](C)(O)C1 [B-207] | 0.064 nM | 11.9 nM |  | 
COc1nc(-c2cccc(-c3cccc4c3CC[C@@H]4Nc3nc(OC)c(CNCC(=O)O)cc3C(F)(F)F)c2Cl)ccc1CNC[C@H]1C[C@](C)(O)C1 [A-84] |  |  | ≤ 0.064 nM | 31.8 nM
COc1cc(N[C@H]2CCc3c(-c4cccc(-c5ccc(CNC[C@@H]6CCC(=O)N6)c(OC)n5)c4Cl)cccc32)c(C(F)(F)F)nc1CN [A-44] |  |  | ≤ 0.064 nM | 10.6 nM
CNC(=O)CNCc1cc(C(F)(F)F)c(O[C@H]2CCc3c(-c4cccc(-c5ccc(CNC[C@@H]6CCC(=O)N6)c(OC)n5)c4Cl)cccc32)nc1OC [B-250] | 0.237 nM | 36.4 nM |  | 
COc1nc(-c2cccc(-c3cccc4c3CC[C@@H]4Nc3nc(OC)c(CNC[C@@H]4CCC(=O)N4)cc3Cl)c2Cl)ccc1CNC[C@@H]1CCC(=O)N1 [A-9] |  |  | 1.66 nM | 150 nM
COc1cc(-c2cccc(-c3cccc4c3CC[C@@H]4Oc3nc(OC)c(CN4CC(C)(C(=O)O)C4)cc3C(F)(F)F)c2Cl)ccc1CNC[C@@H]1CCC(=O)N1 [B-141] | 0.064 nM | 5.83 nM |  | 
COc1nc(-c2cccc(-c3cccc4c3CC[C@@H]4Oc3nc(OC)c(CN4CC[C@@](C)(C(=O)O)C4)cc3C(F)(F)F)c2Cl)ccc1CN[C@H]1C[C@](C)(O)C1 [B-213] | 0.064 nM | 17 nM |  | 
COc1nc(-c2cccc(-c3cccc4c3CC[C@@H]4Oc3nc(OC)c(CN4C[C@@H]5CCC[C@]5(C(=O)O)C4)cc3Cl)c2Cl)ccc1CN1CC(C)(O)C1 [B-83] | 0.064 nM | 211 nM |  | 
COc1nc(-c2cccc(-c3cccc4c3CC[C@@H]4Oc3nc(OC)c(CN4C[C@H]5C[C@H]5[C@H]4C(=O)O)cc3C(F)(F)F)c2Cl)ccc1CNC[C@@H]1CCC(=O)N1 [B-234] | 0.064 nM | 3.18 nM |  | 
